Laboratory results taken from ChEMBL document CHEMBL5257031, “Drug-like Antagonists of P2Y Receptors-From Lead Identification to Drug Development” (J Med Chem, 2016).
One block for each compound: values may come before it.

Assays:
P2Y purinoceptor 6 = P2Y purinoceptor 6 (Homo sapiens, UniProt Q15077); assay: Antagonist activity at human P2Y6
[1] = Oral bioavailability in C57BL/6 mouse at 50 mg/kg; settings: in vivo
[2] = Half life in C57BL/6 mouse 2 mg/kg, iv; assay type: ADME, organism-based; settings: in vivo
[3] = Half life in C57BL/6 mouse 2 mg/kg, iv; settings: in vivo
[4] = Antagonist activity at human P2Y12 by aggregation assay
[5] = Half life in rat 1 mg/kg, iv; assay type: ADME, organism-based; settings: in vivo
[6] = Clearance in rat at 30 mg/kg, po; assay type: ADME, organism-based; settings: in vivo
[7] = Half life in rat 30 mg/kg, po; assay type: ADME, organism-based; settings: in vivo
[8] = Volume of distribution at steady state in rat at 30 mg/kg, PO; assay type: ADME, organism-based; settings: in vivo
P2Y purinoceptor 13 [9] = target: T1, P2Y purinoceptor 13 (Homo sapiens, UniProt Q9BPV8); assay: Antagonist activity at P2Y13 (unknown origin)
T1 sequence (Q9BPV8 whole entry): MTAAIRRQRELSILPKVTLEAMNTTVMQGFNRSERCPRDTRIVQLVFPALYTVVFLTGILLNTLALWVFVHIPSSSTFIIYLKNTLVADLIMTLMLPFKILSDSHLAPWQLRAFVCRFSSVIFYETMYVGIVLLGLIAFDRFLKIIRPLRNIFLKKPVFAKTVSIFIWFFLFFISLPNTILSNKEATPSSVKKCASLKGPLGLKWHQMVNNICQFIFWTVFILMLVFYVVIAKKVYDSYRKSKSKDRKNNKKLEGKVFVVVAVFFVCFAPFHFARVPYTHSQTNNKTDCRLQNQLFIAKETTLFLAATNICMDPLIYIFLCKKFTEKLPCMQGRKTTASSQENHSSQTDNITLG

P2Y purinoceptor 14 [10] = target: T2, P2Y purinoceptor 14 (Homo sapiens, UniProt Q15391); assay: Antagonist activity at human P2Y14 expressed in CHO cells assessed as inhibition constant; assay type: cell-based
T2 sequence (Q15391 whole entry): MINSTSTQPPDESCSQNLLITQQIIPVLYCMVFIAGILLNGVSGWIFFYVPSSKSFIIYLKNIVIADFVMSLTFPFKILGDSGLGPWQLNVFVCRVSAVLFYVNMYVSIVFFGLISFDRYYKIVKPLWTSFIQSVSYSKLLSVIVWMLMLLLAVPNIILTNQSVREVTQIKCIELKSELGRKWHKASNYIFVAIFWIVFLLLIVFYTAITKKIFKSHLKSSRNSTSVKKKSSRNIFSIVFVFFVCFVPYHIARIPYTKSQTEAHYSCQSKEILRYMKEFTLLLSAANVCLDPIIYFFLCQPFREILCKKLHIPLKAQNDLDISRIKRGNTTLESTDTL

[11] = Antagonist activity at ATP gamma S induced mucin in Normal human bronchial epithelial cell; assay type: cell-based
P2Y purinoceptor 13 [12] = target: T1, P2Y purinoceptor 13; assay: Antagonist activity at human P2Y13
P2Y purinoceptor 12 [13] = target: T3, P2Y purinoceptor 12 (Homo sapiens, UniProt Q9H244); assay: Antagonist activity at human P2Y12
T3 sequence (Q9H244 whole entry): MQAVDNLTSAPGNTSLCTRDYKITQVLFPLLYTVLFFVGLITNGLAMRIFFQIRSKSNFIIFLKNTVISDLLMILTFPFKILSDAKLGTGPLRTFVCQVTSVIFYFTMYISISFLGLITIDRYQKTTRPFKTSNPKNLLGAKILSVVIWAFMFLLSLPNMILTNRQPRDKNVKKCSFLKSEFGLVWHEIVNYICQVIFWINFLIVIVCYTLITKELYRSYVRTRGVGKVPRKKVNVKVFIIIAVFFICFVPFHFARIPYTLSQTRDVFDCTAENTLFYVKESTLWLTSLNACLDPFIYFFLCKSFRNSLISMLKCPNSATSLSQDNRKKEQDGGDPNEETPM

P2Y purinoceptor 4 [14] = target: P2Y purinoceptor 4 (Rattus norvegicus, UniProt O35811); assay: Agonist activity at rat P2Y4
P2Y purinoceptor 4 (Rattus norvegicus, UniProt O35811), sequence (O35811 whole entry): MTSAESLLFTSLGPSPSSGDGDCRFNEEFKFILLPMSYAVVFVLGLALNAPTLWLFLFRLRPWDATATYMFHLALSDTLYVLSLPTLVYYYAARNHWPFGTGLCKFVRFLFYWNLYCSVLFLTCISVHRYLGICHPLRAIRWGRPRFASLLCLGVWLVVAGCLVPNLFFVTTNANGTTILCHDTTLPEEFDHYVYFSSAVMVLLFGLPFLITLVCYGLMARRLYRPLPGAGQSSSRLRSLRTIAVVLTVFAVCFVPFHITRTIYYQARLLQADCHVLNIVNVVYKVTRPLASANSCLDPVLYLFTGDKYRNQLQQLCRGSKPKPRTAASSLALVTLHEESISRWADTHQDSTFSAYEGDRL

P2Y purinoceptor 4 [15] = target: T4, P2Y purinoceptor 4 (Homo sapiens, UniProt P51582)
T4 sequence (P51582 whole entry): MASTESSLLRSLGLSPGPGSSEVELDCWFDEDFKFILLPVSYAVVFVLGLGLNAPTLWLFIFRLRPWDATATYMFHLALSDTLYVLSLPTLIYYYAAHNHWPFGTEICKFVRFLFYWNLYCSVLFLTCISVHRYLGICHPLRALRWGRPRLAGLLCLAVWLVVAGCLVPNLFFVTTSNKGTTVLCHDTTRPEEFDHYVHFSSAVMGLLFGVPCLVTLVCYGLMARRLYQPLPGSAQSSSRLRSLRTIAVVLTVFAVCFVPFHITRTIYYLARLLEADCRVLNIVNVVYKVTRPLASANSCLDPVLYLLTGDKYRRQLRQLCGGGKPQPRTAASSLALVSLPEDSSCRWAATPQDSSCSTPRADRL

[16] = Clearance in rat; assay type: ADME; settings: in vivo
[17] = Antagonist activity at human pA2 by FLIPR assay
[18] = Volume of distribution at steady state in rat; assay type: ADME; settings: in vivo
[19] = Oral bioavailability in mouse; settings: in vivo
P2Y purinoceptor 1 [20] = target: T5, P2Y purinoceptor 1 (Homo sapiens, UniProt P47900); assay: Inhibition of human P2Y1 assessed as inhibition constant
T5 sequence (P47900 whole entry): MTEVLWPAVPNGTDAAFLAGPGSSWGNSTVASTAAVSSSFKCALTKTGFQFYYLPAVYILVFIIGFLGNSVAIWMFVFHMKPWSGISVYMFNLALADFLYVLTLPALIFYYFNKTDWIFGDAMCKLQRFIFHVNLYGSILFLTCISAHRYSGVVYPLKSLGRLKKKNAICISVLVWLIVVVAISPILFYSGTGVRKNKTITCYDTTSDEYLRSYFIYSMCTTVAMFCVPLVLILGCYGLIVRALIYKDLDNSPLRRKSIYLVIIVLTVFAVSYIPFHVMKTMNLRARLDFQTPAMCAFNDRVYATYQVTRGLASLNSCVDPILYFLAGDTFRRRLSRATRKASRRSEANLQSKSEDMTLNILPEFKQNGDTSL

P2Y purinoceptor 2 = P2Y purinoceptor 2 (Mus musculus, UniProt P35383); assay: Antagonist activity at mouse P2Y2
P2Y purinoceptor 2, sequence (P35383 whole entry): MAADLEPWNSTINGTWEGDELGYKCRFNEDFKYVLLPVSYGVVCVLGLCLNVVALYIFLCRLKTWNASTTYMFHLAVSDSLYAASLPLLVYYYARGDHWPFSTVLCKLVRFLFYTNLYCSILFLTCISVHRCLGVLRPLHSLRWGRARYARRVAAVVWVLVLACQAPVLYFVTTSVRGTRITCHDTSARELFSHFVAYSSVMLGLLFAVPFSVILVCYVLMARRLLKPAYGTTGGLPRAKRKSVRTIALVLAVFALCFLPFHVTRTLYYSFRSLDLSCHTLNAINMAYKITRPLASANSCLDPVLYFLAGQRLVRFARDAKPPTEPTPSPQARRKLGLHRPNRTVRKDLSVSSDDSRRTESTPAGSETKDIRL

P2Y purinoceptor 1 [21] = target: T5, P2Y purinoceptor 1; assay: Inhibition of human P2Y1
P2Y purinoceptor 14 [22] = target: T6, P2Y purinoceptor 14 (Rattus norvegicus, UniProt O35881); assay: Antagonist activity at rat P2Y14
T6 sequence (O35881 whole entry): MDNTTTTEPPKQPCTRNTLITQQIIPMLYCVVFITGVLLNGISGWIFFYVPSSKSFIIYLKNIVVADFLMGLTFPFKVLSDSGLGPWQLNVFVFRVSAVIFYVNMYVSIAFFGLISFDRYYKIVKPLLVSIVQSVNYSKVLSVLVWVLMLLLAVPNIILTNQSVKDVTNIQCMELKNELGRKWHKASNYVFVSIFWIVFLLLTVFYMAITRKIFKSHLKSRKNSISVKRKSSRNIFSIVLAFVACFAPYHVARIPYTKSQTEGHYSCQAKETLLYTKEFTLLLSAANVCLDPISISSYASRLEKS

P2Y purinoceptor 12 [23] = target: T3, P2Y purinoceptor 12; assay: Displacement of [3H]-2-MeS-ADP from human P2Y12 assessed as inhibition constant incubated for 30 mins
P2Y purinoceptor 1 [24] = target: T5, P2Y purinoceptor 1; assay: Agonist activity at human P2Y1
[25] = Cmax in rat measured up to 24 hrs; assay type: ADME; set-up: time < 24 hrs; settings: in vivo
[26] = Cmax in mouse measured up to 24 hrs; assay type: ADME; set-up: time < 24 hrs; settings: in vivo
in vivo = settings: mouse, po
[27] = Binding affinity to chimpanzee P2Y14 assessed as inhibition constant; set-up: species or system Pan troglodytes
P2Y purinoceptor 4 [28] = target: T4, P2Y purinoceptor 4; assay: Agonist activity at human P2Y4 transfected in human 1321N1 cells at 100 uM relative to control; assay type: cell-based
[29] = target: P2Y purinoceptor 4 (Rattus norvegicus) (UniProt O35811); assay: Agonist activity at rat P2Y4 transfected in human 1321N1 cells at 100 uM relative to control; assay type: cell-based
P2Y purinoceptor 4 (Rattus norvegicus), sequence (O35811 whole entry): as the sequence (O35811 whole entry) above

[30] = Antagonist activity at P2Y14 using UDP-Glc as substrate
P2Y purinoceptor 4 [31] = target: T4, P2Y purinoceptor 4; assay: Agonist activity at human P2Y4 transfected in human 1321N1 cells; assay type: cell-based

P2Y purinoceptor 6, sequence (Q15077 whole entry): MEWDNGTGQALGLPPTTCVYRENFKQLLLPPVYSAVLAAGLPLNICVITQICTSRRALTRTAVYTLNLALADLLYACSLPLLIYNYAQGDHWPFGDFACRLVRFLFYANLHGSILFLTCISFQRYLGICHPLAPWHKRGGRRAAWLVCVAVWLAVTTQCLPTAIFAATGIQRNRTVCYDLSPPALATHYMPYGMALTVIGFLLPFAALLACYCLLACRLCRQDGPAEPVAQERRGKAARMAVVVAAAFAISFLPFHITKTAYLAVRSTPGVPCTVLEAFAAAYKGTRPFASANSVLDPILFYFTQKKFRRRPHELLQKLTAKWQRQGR

IC50 (P2Y purinoceptor 6): 100 nM
Compound: S=C=Nc1ccc(CCc2ccc(N=C=S)cc2)cc1

bioavailability [1]: 12%
half-life [2]: 2.7 h
half-life [3]: 2.7 h
Compound: Cc1cc(F)cc(C)c1COc1ccc2c(-c3ccsc3)cc(C(=O)O)cc2c1

pIC50 [4]: 9.5
Compound: CCCCNc1nc(SCCC)nc2c1nnn2[C@@H]1O[C@H](/C=C/C(=O)N[C@@H](CC(=O)O)C(=O)O)[C@@H](O)[C@H]1O

half-life [5]: 15.4 h
CL/F [6]: 13 mL/min/kg
half-life [7]: 1.4 h
Vdss [8]: 0.8 L/kg
Compound: CC(C)(C)c1ccccc1Oc1ncccc1NC(=O)Nc1ccc(OC(F)(F)F)cc1

IC50 (P2Y purinoceptor 13 [9]): 11600 nM
Compound: Cc1nc(/N=N/c2ccc(S(=O)(=O)O)cc2S(=O)(=O)O)c(COP(=O)(O)O)c(C=O)c1O

Ki (P2Y purinoceptor 14 [10]): 0.08 nM
Compound: CC(=O)c1cc(C(=O)NCCCCCCn2cc(CCCCN3CCC(c4ccc(-c5cc(C(=O)O)cc6cc(-c7ccc(C(F)(F)F)cc7)ccc56)cc4)CC3)nn2)ccc1-c1c2ccc(=N)c(S(=O)(=O)O)c-2oc2c(S(=O)(=O)O)c(N)ccc12

Compound: Cc1ccc2c(c1)C=Cc1cc(C)ccc1C2c1cn(Cc2ccc(C(=O)Nc3nnn[nH]3)o2)c(=O)[nH]c1=S
IC50 [11]: 1000 nM

IC50 (P2Y purinoceptor 13 [12]): 1070 nM
Compound: Cc1nc(/N=N/c2cc([N+](=O)[O-])ccc2Cl)c(COP(=O)(O)O)c(C=O)c1O

IC50 (P2Y purinoceptor 12 [13]): 8.3 nM
Compound: CCOC(=O)N1CCN(C(=O)[C@H](CCC(=O)O)NC(=O)c2cc(OC(C)(C)C(=O)O)c3ccc(C)cc3n2)CC1

IC50 (P2Y purinoceptor 12 [13]): 130 nM
Compound: CCOC(=O)N1CCN(C(=O)[C@H](CCC(=O)O)NC(=O)c2cc(OC(C)(C)C(=O)OCC)c3ccc(C)cc3n2)CC1

Compound: Nc1ncnc2c1ncn2[C@@H]1O[C@H](COP(=O)(O)OP(=O)(O)OP(=O)(O)O)[C@@H](O)[C@H]1O [ADENOSINE TRIPHOSPHATE]
EC50 (P2Y purinoceptor 4 [14]): 1170 nM
EC50 (P2Y purinoceptor 4 [15]): 6200 nM

Compound: Nc1c(S(=O)(=O)O)cc(Nc2ccc(Nc3nc(Cl)nc(Nc4cccc(S(=O)(=O)O)c4)n3)c(S(=O)(=O)O)c2)c2c1C(=O)c1ccccc1C2=O [RB 2]
IC50 (P2Y purinoceptor 13 [9]): 1900 nM

Compound: CC(C)(C)CN1CCC2(CC1)CN(c1ccccc1NC(=O)Nc1nc3ccc(Cl)nc3s1)c1c(O)cc(F)c(-c3ccc(F)cc3)c12
clearance [16]: 4 mL/min/kg
IC50 [17]: 180 nM
Vd ([18]; read-out: Vdss): 2.1 L/kg
bioavailability [19]: 30%

Ki (P2Y purinoceptor 1 [20]): > 10000 nM
Compound: Cc1cc(Oc2ccccc2NC(=O)Nc2ccc(C3CCS(=O)(=O)CC3)cc2)n(-c2ccccc2Cl)n1

Ki (P2Y purinoceptor 1 [20]): 70 nM
Compound: CCc1ccccc1-n1nc(C)cc1Oc1ccccc1NC(=O)Nc1ccc(OC(F)(F)F)cc1

IC50 (P2Y purinoceptor 2): 12000 nM
Compound: COc1ccc(-c2cc(=O)c3c(OC)c(OC)c(OC)c(OC)c3o2)cc1 [TANGERETIN]

pIC50 [4]: 7
Compound: CCCCNc1nc(SCCC)nc2c1ncn2[C@@H]1O[C@H](/C=C/C(=O)N[C@@H](CC(=O)O)C(=O)O)[C@@H](O)[C@H]1O

IC50 (P2Y purinoceptor 1 [21]): 330 nM
Compound: CNc1ncnc2c1ncn2[C@H]1C[C@H](OP(=O)(O)O)[C@@H](COP(=O)(O)O)O1

EC50 (P2Y purinoceptor 14 [22]): 350 nM
Compound: O=c1ccn([C@@H]2O[C@H](COP(=O)(O)OP(=O)(O)O)[C@@H](O)[C@H]2O)c(=O)[nH]1 [URIDINE_DIPHOSPHATE]

Ki (P2Y purinoceptor 12 [23]): 2 nM
Compound: CCCSc1nc(N[C@@H]2C[C@H]2c2ccccc2)c2nnn([C@@H]3C[C@H](c4nnn[nH]4)[C@@H](O)[C@H]3O)c2n1

IC50 (P2Y purinoceptor 1 [24]): 840 nM
Compound: CNc1nc(Cl)nc2c1ncn2CCC(COP(=O)(O)O)COP(=O)(O)O

EC50 (P2Y purinoceptor 1 [24]): 6300 nM
IC50 (P2Y purinoceptor 1 [24]): 5800 nM
Compound: Nc1ncnc2c1ncn2[C@H]1C[C@H](OP(=O)(O)O)[C@@H](COP(=O)(O)O)O1

IC50 (P2Y purinoceptor 13 [12]): 661 nM
Compound: Cc1nc(/N=N/c2ccc(Cl)c([N+](=O)[O-])c2)c(COP(=O)(O)O)c(C=O)c1O

Compound: O=C(O)c1cc(-c2ccc(C3CCNCC3)cc2)c2ccc(-c3ccc(C(F)(F)F)cc3)cc2c1 [PPTN]
Cmax [25]: 680 nM
Cmax [26]: 2280 nM
bioavailability (in vivo): 5%
Ki [27]: 1.9 nM
bioavailability [19]: 5%

IC50 (P2Y purinoceptor 13 [9]): 2300 nM
Compound: Cc1ccc(C(=O)Nc2ccc(S(=O)(=O)O)c3cc(S(=O)(=O)O)cc(S(=O)(=O)O)c23)cc1NC(=O)c1cccc(NC(=O)Nc2cccc(C(=O)Nc3cc(C(=O)Nc4ccc(S(=O)(=O)O)c5cc(S(=O)(=O)O)cc(S(=O)(=O)O)c45)ccc3C)c2)c1 [SURAMIN HEXASODIUM]

Compound: S=C=Nc1cccc(NC(=S)NCCCCNC(=S)Nc2cccc(N=C=S)c2)c1
IC50 (P2Y purinoceptor 6): 37 nM

clearance [16]: 81 mL/min/kg
Vdss [18]: 15.7 L/kg
Compound: Cc1cc(Oc2ccccc2NC(=O)Nc2ccc(OC(F)(F)F)cc2)n(-c2ccccc2Cl)n1

Activity (P2Y purinoceptor 4 [28]): 15%
Activity [29]: 34%
Compound: Nc1ncnc2c1ncn2[C@@H]1O[C@H](COP(=O)(O)OP(=O)(O)O)[C@@H](O)[C@H]1O

IC50 [30]: 3500 nM
Compound: O=C(O)c1cc(-c2ccccc2)c2ccc(OCc3ccccc3)cc2c1

pIC50 [4]: 9.3
Compound: CCCCNc1nc(SCCC)nc2c1nnn2[C@@H]1C[C@H](/C=C/C(=O)N[C@@H](CC(=O)O)C(=O)O)[C@@H](O)[C@H]1O

EC50 (P2Y purinoceptor 4 [31]): 550 nM
Compound: O=c1ccn([C@@H]2O[C@H](COP(=O)(O)OP(=O)(O)OP(=O)(O)O)[C@@H](O)[C@H]2O)c(=O)[nH]1 [URIDINE TRIPHOSPHATE]
